Data as given in patent US7063946B2, “Methods, reagents, kits and apparatus for protein function analysis” (Meso Scale Technologies, LLC., priority 2001, dated 2006).

Molecular target: T1, Fert2 (Mus musculus, UniProt P70451)
T1 construct: specificity data for proteins generated from a library of eighteen full-length clones; host or cells: rabbit reticulocyte lysate, TnT coupled transcription/translation
Test: Kinase inhibitor profiling, pEY phosphorylation
Type: biochemical

T1 sequence (P70451 whole entry): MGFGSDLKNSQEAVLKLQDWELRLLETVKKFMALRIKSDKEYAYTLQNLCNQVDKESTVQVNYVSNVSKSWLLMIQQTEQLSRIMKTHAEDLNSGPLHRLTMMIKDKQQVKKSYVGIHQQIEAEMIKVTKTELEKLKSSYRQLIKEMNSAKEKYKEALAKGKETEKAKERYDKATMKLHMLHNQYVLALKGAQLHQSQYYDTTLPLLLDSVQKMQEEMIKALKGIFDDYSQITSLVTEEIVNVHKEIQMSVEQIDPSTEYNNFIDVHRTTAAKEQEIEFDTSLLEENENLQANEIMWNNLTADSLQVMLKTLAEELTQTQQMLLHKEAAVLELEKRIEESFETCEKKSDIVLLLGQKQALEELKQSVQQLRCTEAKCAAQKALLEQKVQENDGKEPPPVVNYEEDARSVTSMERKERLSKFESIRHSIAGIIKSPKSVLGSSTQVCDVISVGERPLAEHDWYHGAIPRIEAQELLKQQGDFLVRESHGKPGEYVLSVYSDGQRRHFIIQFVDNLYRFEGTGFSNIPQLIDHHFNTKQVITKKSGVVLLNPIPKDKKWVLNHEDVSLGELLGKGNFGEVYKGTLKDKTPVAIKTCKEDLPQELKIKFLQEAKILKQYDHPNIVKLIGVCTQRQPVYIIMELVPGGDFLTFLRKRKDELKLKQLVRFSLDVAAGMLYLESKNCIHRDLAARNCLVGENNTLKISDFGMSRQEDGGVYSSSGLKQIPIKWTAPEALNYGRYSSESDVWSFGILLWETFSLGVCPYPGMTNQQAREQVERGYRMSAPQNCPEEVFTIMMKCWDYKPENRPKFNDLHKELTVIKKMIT

For `COc1c(C=O)c(O)cc2c1C(=O)c1ccccc1C2=O` [Damnacanthal], the “Inhibition specificity towards pEY phosphorylation at 10X IC50, Fert2” value was “L (low inhibition (“L”=between 50–75% of the activity remaining))”.
